Data from PMC11166458, “Caskin2 is a novel talin- and Abi1-binding protein that promotes cell motility” (Journal of Cell Science, 2024).
No end group written: not given here.

Assays:
MCF7 cells = test: Caskin2–talin colocalization in MCF7 cells (Pearson's correlation); type: cell-based, Human; conditions: blebbistatin 10 µM, 20 µM for 45 min (Fig. S3B)
Description: PA-JEB/β4 keratinocytes were seeded on glass coverslips and cultured for 24 h in complete KGM, and then continued to be cultured for a further 16 h in DMEM with 10% FCS. GE11^tetONβ1 and MCF7 cells were seeded on glass coverslips and cultured for 24 h in DMEM with 10% FCS. Cells were fixed in 2% paraformaldehyde and permeabilized with 0.2% Triton X-100 for 5 min, blocked with PBS containing 2% bovine serum albumin (BSA; Sigma-Aldrich) for 45 min and subsequently incubated with primary and secondary antibodies for 1 h. In between antibody steps, the coverslips were washed three times with PBS. Actin fibers were visualized by staining with Phalloidin–Alexa Fluor 647 (Cell Signaling Technology). Nuclei were stained with DAPI. Samples were mounted on glass slides in Mowiol after three washing steps with PBS. Images were acquired with a Leica TCS SP5 confocal microscope with a 63× (NA 1.4) oil objective. Software for image acquisition is Leica LAS AF 3.0.2 ([Wang et al., 2020b]).
Imaging analysis was performed using FIJI software ([Schindelin et al., 2012]). The levels of colocalization between Caskin2 and various other proteins, including integrin β4, FA proteins and CMSC components, was performed using Pearson's co-efficient analysis in the JACoP module of ImageJ ([Carisey et al., 2013]; [Wang et al., 2020b]).

[1] = test system: talin-R7R8 (residues 1358–1653), R8 domain; test: X-ray structure of talin-R7R8 in complex with Caskin2-LD peptide, interface analysis; type: binding, murine; conditions: electron density map; 1:2 molar ratio of protein to peptide
Description: A codon-optimized synthetic gene encoding murine talin-R7/R8 domains (residues 1358–1653) was cloned into the pETNKI-6xhis-3C-LIC vector ([Luna-Vargas et al., 2011]). The 6×his–3C–talin-R7/R8 protein was expressed in Bl21(DE3) cells, for 18 h at 20°C upon induction with 0.4 mM IPTG. Cells were harvested by centrifugation (4000 g for 15 min) and stored at −20°C. After thawing, cells were resuspended in lysis buffer [25 mM Tris-HCl pH 8.0, 10 mM imidazole, 200 mM NaCl, 1 mM TCEP and 5 μg/ml DNase (Roche)] and lysed by sonication. The soluble lysate fractions were collected after centrifugation (55,000 g at 4°C for 30 min) and applied to a nickel Sepharose column. Beads were washed with wash buffer (lysis buffer without DNase) and protein was eluted in the same buffer supplemented with 250 mM imidazole. The 6×His tag was cleaved off by his-3C protease during dialysis against 25 mM Tris-HCl pH 8.0, 100 mM NaCl, 1 mM TCEP for 16 h at 4°C. The protein solution was diluted with an equal volume of 25 mM Tris-HCl pH 8.0, 1 mM TCEP before his-3C protease and uncleaved 6×his–talin-R7/R8 were removed by nickel Sepharose. The protein was further purified by anion exchange chromatography (Resource Q column, Cytiva) followed by size exclusion chromatography (S75 Superdex 16/60, Cytiva) in 25 mM Tris-HCl pH 8.0, 100 mM NaCl, 1 mM TCEP. Talin-R7/R8 eluted in a single peak. […]

Cc1ccc2c(c1)C(=O)C1(O)CCN(c3ccccc3)C1=N2 (centres unmarked) [blebbistatin]
overall Caskin2–talin colocalization (MCF7 cells): increased overall Caskin2–talin colocalization

Caskin2-LD peptide: C-terminal LD motif peptide of Caskin2 (residues 1187–1202) (STMFDALADQLDAMLD; also: Atto488 label)
binding to talin-R8 in crystal structure [1]: clear binding of the Caskin2-LD peptide to the R8 motif
